Consider 13 compounds from ChEMBL document CHEMBL1201862, “PubChem BioAssay data set” (2004).

Among the test systems are U-251; UO-31; MOLT-4; NCI-H460; Malme-3M; IGROV-1; OVCAR-3; OVCAR-5; A549; M14; SW-620; SK-MEL-28; EKVX; CCRF-CEM; COLO 205; HCT-15; HCT-116.
Holding throughout (assay): NCI anticancer screen, dose series, 48 h

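Values below derive from 48-hour exposures of cells grown in 96-well plates, with endpoints linearly interpolated between the two concentrations bracketing the appropriate inhibition level. Abbreviation: GI50, concentration required for 50% inhibition of growth.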 Active and inactive are the calls of the source. Rule as the data show it: active = GI50 up to about 1.1 µM and inactive = higher.

Turning to `C=CCC(OCCOCC)c1cc(OCCOCC)ccc1OC` (stereo not drawn), the GI50 in the assay with U-251, with UO-31, in the assay with MOLT-4, in the assay with NCI-H460, in the assay on Malme-3M and with IGROV-1 was > 100 µM (inactive) in each case. The GI50 in the assay with OVCAR-3, with OVCAR-5, with A549, in the assay on M14, in the assay on SW-620 and with SK-MEL-28 was > 100 µM (inactive) in each case. In addition, the GI50 in the assay with EKVX was > 100 µM (inactive); with CCRF-CEM, > 100 µM (inactive); in the assay on COLO 205 it was > 100 µM (inactive); in the assay with HCT-15, more than 100 µM.
As to `NCCOCn1cc(Cc2cccc(OCc3ccccc3)c2)c(=O)[nH]c1=O`, the GI50 in the assay with U-251 was > 100 µM (inactive); with UO-31, > 100 µM (inactive); with MOLT-4, 73.8 µM (inactive); in the assay on NCI-H460, 63.5 µM (inactive); in the assay on IGROV-1, > 100 µM (inactive); with OVCAR-3, > 100 µM (inactive). Moreover, the GI50 in the assay with A549 is > 100 µM (inactive); with M14, > 100 µM (inactive); with SW-620, > 100 µM (inactive); with SK-MEL-28, > 100 µM (inactive); in the assay on EKVX it was > 100 µM (inactive); in the assay on HCT-116, 86.7 µM (inactive). In addition, the GI50 is 44.1 µM (inactive) with CCRF-CEM, 92.5 µM (inactive) with COLO 205 and more than 100 µM with HCT-15.
On to `O=C(O)c1ccccc1[Se][Se]c1ccccc1C(=O)O`, for which the GI50 in the assay on U-251 is 40.8 µM (inactive); in the assay with UO-31 it was 2.73 µM (inactive); with MOLT-4 it was 43.8 µM (inactive); in the assay on NCI-H460, 30.8 µM (inactive); in the assay on Malme-3M, 47.2 µM (inactive); in the assay on IGROV-1, 51.6 µM (inactive). Besides, the GI50 in the assay on OVCAR-3 was 51.1 µM (inactive); in the assay on A549, 51.1 µM (inactive); in the assay with M14 it was 72.9 µM (inactive); in the assay with SW-620, > 100 µM (inactive); in the assay on SK-MEL-28 it was 38.1 µM (inactive); in the assay on HCT-116, 37.4 µM (inactive). Further, the GI50 was 56 µM (inactive) in the assay on CCRF-CEM, > 100 µM (inactive) in the assay with COLO 205 and 55.1 µM in the assay on HCT-15.
Turning to `O=c1[nH]c(=O)n(C2CC(O)C(CO)O2)cc1C#Cc1cc(F)cc(F)c1` (stereo not drawn), the GI50 with U-251, with UO-31, in the assay on MOLT-4, in the assay on NCI-H460, in the assay with Malme-3M and in the assay with IGROV-1 was > 100 µM (inactive) in each case. The GI50 in the assay with OVCAR-3, in the assay on OVCAR-5, in the assay with A549, in the assay with M14, in the assay on SW-620 and in the assay with SK-MEL-28 was > 100 µM (inactive) throughout. The GI50 was > 100 µM (inactive) in the assay on EKVX, > 100 µM (inactive) in the assay on CCRF-CEM, > 100 µM (inactive) with COLO 205 and more than 100 µM in the assay with HCT-15.
With `O=C(OCc1nc2ccc(Br)cc2c(=O)n1-c1ccccc1)c1ccccc1O`, the GI50 was > 100 µM (inactive) in the assay with U-251; 29.8 µM (inactive) with UO-31; 37.9 µM (inactive) with MOLT-4; > 100 µM (inactive) in the assay on NCI-H460; > 100 µM (inactive) in the assay on Malme-3M; > 100 µM (inactive) in the assay with IGROV-1. The GI50 in the assay with OVCAR-3 is 2.32 µM (inactive); in the assay with OVCAR-5, > 100 µM (inactive); with A549 it was 86.5 µM (inactive); with M14 it was > 100 µM (inactive); with SW-620, > 100 µM (inactive); in the assay with SK-MEL-28 it was > 100 µM (inactive). Besides, the GI50 is 66.1 µM (inactive) in the assay with EKVX, > 100 µM (inactive) in the assay on HCT-116, 48.3 µM (inactive) in the assay with CCRF-CEM and > 100 µM (inactive) in the assay on COLO 205.
Take `N#Cc1c(-c2ccco2)cc(-c2ccc(NCc3nc4ccccc4[nH]3)cc2)nc1N`: the GI50 is 25.9 µM (inactive) in the assay on U-251; 16.6 µM (inactive) in the assay on UO-31; 15.3 µM (inactive) with MOLT-4; 18.1 µM (inactive) in the assay on NCI-H460; 24.5 µM (inactive) with Malme-3M; 23 µM (inactive) with IGROV-1. For the same compound, the GI50 with OVCAR-3 is 20.1 µM (inactive); with OVCAR-5, 32.3 µM (inactive); in the assay on A549, 29.8 µM (inactive); in the assay on M14, 19.5 µM (inactive); with SW-620 it was 35.3 µM (inactive); with SK-MEL-28, 27.5 µM (inactive). In addition, the GI50 in the assay on HCT-116 is 18.9 µM (inactive); with CCRF-CEM it was 27.4 µM (inactive); in the assay with COLO 205, 21.6 µM (inactive); with HCT-15, 23.6 µM.
In the case of `COc1cc(/C=C(\NC(=O)c2ccccc2)c2nc3c(O)nc(S)nc3[nH]2)cc(OC)c1OC`, the GI50 with U-251, in the assay on UO-31, in the assay with MOLT-4, with Malme-3M, in the assay with IGROV-1 and in the assay on OVCAR-3 was > 100 µM (inactive) in each case. Besides, the GI50 with OVCAR-5, with A549, in the assay with M14, with SW-620, with SK-MEL-28 and in the assay with EKVX was > 100 µM (inactive) each time. Besides, the GI50 was > 100 µM (inactive) in the assay on CCRF-CEM, > 100 µM (inactive) in the assay with COLO 205 and more than 100 µM in the assay on HCT-15.
In the case of `CCCC(Sc1ccccc1)P(=O)(c1ccccc1)c1ccccc1` (stereo not drawn), the GI50 is 23.5 µM (inactive) in the assay with U-251; > 100 µM (inactive) in the assay on UO-31; 20.6 µM (inactive) in the assay with MOLT-4; 29.8 µM (inactive) in the assay on NCI-H460; 41.1 µM (inactive) in the assay on OVCAR-3; 28.8 µM (inactive) in the assay on A549. The GI50 in the assay on M14 was 35.2 µM (inactive); in the assay on SW-620 it was 41.9 µM (inactive); in the assay on SK-MEL-28 it was 42.1 µM (inactive); in the assay with EKVX, 24 µM (inactive); in the assay with HCT-116, 31.3 µM (inactive); in the assay with CCRF-CEM, 29.9 µM (inactive). In addition, the GI50 in the assay on COLO 205 is 31.4 µM (inactive).
With `CC(=O)OCCOCNC(=S)N/N=C(\C)c1ccco1`, the GI50 with U-251, in the assay with UO-31, in the assay with NCI-H460, in the assay on Malme-3M, with IGROV-1 and in the assay on OVCAR-3 was > 100 µM (inactive) throughout. Further, the GI50 in the assay with OVCAR-5, in the assay with A549, with M14, with SW-620, in the assay with SK-MEL-28 and in the assay on EKVX was > 100 µM (inactive) throughout. The GI50 in the assay with HCT-116 was > 100 µM (inactive); in the assay with CCRF-CEM it was > 100 µM (inactive); in the assay with COLO 205 it was > 100 µM (inactive); with HCT-15, more than 100 µM.
With `Brc1ccc(C2SCc3nc4ccccc4n32)cc1` (stereo not drawn), the GI50 in the assay with U-251 is 12 µM (inactive); in the assay on UO-31, 11 µM (inactive); in the assay with MOLT-4, 13.4 µM (inactive); in the assay with NCI-H460 it was 12.9 µM (inactive); in the assay on Malme-3M, 12.9 µM (inactive); with IGROV-1, 10.3 µM (inactive). The GI50 was 4.83 µM (inactive) in the assay on OVCAR-3; 5.4 µM (inactive) in the assay with OVCAR-5; 19 µM (inactive) with A549; 12.4 µM (inactive) in the assay on M14; 13.3 µM (inactive) with SW-620; 4.72 µM (inactive) with SK-MEL-28. The GI50 was 11.9 µM (inactive) in the assay with EKVX; 6.3 µM (inactive) in the assay with HCT-116; 15.7 µM (inactive) with CCRF-CEM; 12.7 µM (inactive) with COLO 205; 11.3 µM in the assay with HCT-15.
In the case of `COC(=O)c1nc(C(=O)OC)c2c([nH]c3ccccc32)c1C(=O)OC`, the GI50 in the assay on U-251 is 99.8 µM (inactive); in the assay with UO-31, 21.3 µM (inactive); with MOLT-4, 82.6 µM (inactive); with NCI-H460, 46.1 µM (inactive); in the assay on Malme-3M it was > 100 µM (inactive); in the assay on IGROV-1 it was > 100 µM (inactive). Moreover, the GI50 in the assay with OVCAR-3 is > 100 µM (inactive); in the assay on OVCAR-5, > 100 µM (inactive); in the assay with A549, > 100 µM (inactive); in the assay with M14, > 100 µM (inactive); in the assay on SW-620 it was > 100 µM (inactive); with SK-MEL-28, 88.9 µM (inactive). Also, the GI50 in the assay on HCT-116 is > 100 µM (inactive); with CCRF-CEM, 71.1 µM (inactive); in the assay on COLO 205, > 100 µM (inactive); with HCT-15, 53.5 µM.
Turning to `COC(=O)[C@@]1(C)C(=O)CC[C@@H]1C=O`, the GI50 with U-251, with UO-31, in the assay with MOLT-4, with NCI-H460, with Malme-3M and with IGROV-1 was > 100 µM (inactive) throughout. Also, the GI50 in the assay on OVCAR-3, in the assay with OVCAR-5, with A549, in the assay with M14, in the assay on SW-620 and with EKVX was > 100 µM (inactive) each time. Also, the GI50 in the assay on HCT-116 was > 100 µM (inactive); with CCRF-CEM, > 100 µM (inactive); in the assay with COLO 205, > 100 µM (inactive); in the assay on HCT-15, more than 100 µM.
With `[O-][S+]1Cc2ccccc2CS1` (stereo not drawn), the GI50 with U-251 is 10.7 µM (inactive); in the assay on UO-31 it was 21.4 µM (inactive); with MOLT-4, 15.4 µM (inactive); in the assay on NCI-H460 it was 22.7 µM (inactive); in the assay with Malme-3M it was 13.6 µM (inactive); in the assay on IGROV-1 it was 68.2 µM (inactive). Further, the GI50 in the assay on OVCAR-3 is 15.1 µM (inactive); in the assay on OVCAR-5, 18.2 µM (inactive); in the assay on A549, 93.8 µM (inactive); in the assay with M14, 15 µM (inactive); in the assay with SW-620, 13.9 µM (inactive); with SK-MEL-28, 14.9 µM (inactive). Besides, the GI50 with EKVX is 22.9 µM (inactive); in the assay on HCT-116 it was 20.5 µM (inactive); in the assay with COLO 205, 15.4 µM (inactive); in the assay with HCT-15, 34.9 µM.
